Assay results published in US20090137565A1, “Method for treatment of movement disorders” (The Trustees of Columbia University in the City of New York, priority 2004, published 2009).

Experiments:
[1] = tested on: severe posthypoxic myoclonus; test: Earlier trials of anti-myoclonic medications in the Example 1 patient (case history); settings: for reason for intolerance / adverse effect: human, in vivo
Description: The patient was referred to the Columbia University Medical Center Movement Disorder Center for evaluation of severe posthypoxic myoclonus at the age of 37. […] Back-averaged EEGs and somatosensory evoked potentials were not available.

[2] = tested on: severe posthypoxic myoclonus
Description: After obtaining verbal consent from the patient and their spouse, they were given approximately six ounces of wine to drink (alcohol content 14% by volume). […] They were videotaped before and after the trial with alcohol.

[3] = Example 1 patient, before the trial
[4] = approximately six ounces of wine

| Compound | outcome of trials of anti-myoclonic medications [1, 3] | reason for intolerance / adverse effect [1] | also measured |
| --- | --- | --- | --- |
| CC1(C)O[C@@H]2[C@@H](CO[C@@]3(COS(N)(=O)=O)OC(C)(C)O[C@@H]23)O1 [topiramate] | only minimally successful |  |  |
| CCO [alcohol] |  |  | duration of anti-myoclonic effect [2, 4]: resolved in several hours; effect on myoclonus [2, 4]: dramatic improvement in myoclonus; time to improvement in myoclonus ([2]; approximately six ounces of wine (alcohol content 14% by volume)): ≤ 30 min |
| CC[C@@H](C(N)=O)N1CCCC1=O [levetiracetam] | only minimally successful |  |  |
| O=C1CN=C(c2ccccc2Cl)c2cc([N+](=O)[O-])ccc2N1 [clonazepam] | only minimally successful |  | dose-limiting side effect [1, 3]: dose-limiting sedation; effect on severity of myoclonus [1, 3]: partially improved |
| CCCC(CCC)C(=O)O [valproic acid] | only minimally successful | drop in platelet count |  |
| NS(=O)(=O)Cc1noc2ccccc12 [zonisamide] | only minimally successful | anorexia |  |
